# Assay: Short-term, medium-term and autosampler stability in plasma samples and extracts
# Assay type: physicochemical, human
# Details: for Stability in plasma samples at −40 °C (time stable): tested 2 weeks, 1 and 2 months
# Description: Sample stability was measured at two concentration levels (LQC and HQC) in triplicate. Long-term stability was evaluated at −40 °C for 2 weeks, 1 and 2 months; short-term stability was evaluated at room temperature (rt) under light exposure and with light protection and at 4 °C (light protection) for 1, 2, 3, 4, and 7 days. Autosampler stability was also assessed by storing extracts in the autosampler compartment at 10 °C for 1, 2, 3, 4, and 7 days.
# The mean concentration values obtained from each measurement were compared to the concentrations measured at T0 before storage. Stability data are expressed as percentual difference from T0.
# [1] = plasma samples stored at −40 °C
SMILES,Stability in plasma samples at −40 °C (time stable) [1],further results
"N[C@@H](Cc1ccc(O)c(O)c1)C(=O)O [L-DOPA, Levodopa]",up to 2 months,
"C[C@@](Cc1ccc(O)c(O)c1)(NN)C(=O)O [Carbidopa, carbidopa]",up to 1 months,
NC(CO)C(=O)NNCc1ccc(O)c(O)c1O (stereo not shown) [benserazide],,"Stability of the compound (in words) (method development, conditions not stated): severe stability issues"
"COC(=O)C(N)Cc1ccc(O)c(O)c1 (stereo not shown) [LDME, levodopa methyl ester]",,Stability in plasma samples at −40 °C (in words) [1]: not satisfactory

# — paper PMC10254897, “Development and Validation of a New LC-MS/MS Bioanalytical Method for the Simultaneous Determination of Levodopa, Levodopa Methyl Ester, and Carbidopa in Human Plasma Samples” (Molecules, 2023)
